Assays:
Assay type in all cases: in vivo, human
[1] = system: myelofibrosis (MF) patients; assay: Adverse events, tolerability and myelosuppression, Stage 1 study of PRM-151 alone and with ruxolitinib; settings: for safety and tolerability: MF patients, alone and in combination with RUX; for treatment-related myelosuppression: after 24 weeks of therapy, all four cohorts
Description: (§1) Recombinant human SAP, in this case the recombinant human SAP known as PRM-151, was administered to myelofibrosis (MF) patients, alone and in combination with ruxolitinib (RUX), to evaluate safety and efficacy in treating bone marrow fibrosis (BMF). Patients with Intermediate-1, Intermediate-2, or high risk MF with grade ≥2 BMF, either not receiving therapy or on a stable dose of RUX, were eligible for this study.
(§2) Twenty-seven patients were assigned to one of four cohorts based on administration of PRM-151 as a monotherapy or as part of a combination therapy. Cohort 1: i) patients who received no treatment for MF in at least two weeks, ii) were administered an initial loading dose of SAP at 10 mg/kg by intravenous infusion (˜1 hour infusion) on days 1, 3, and 5, and iii) thereafter were administered a dose of SAP every four weeks at 10 mg/kg by intravenous infusion (˜1 hour infusion). Cohort 2: i) patients who received no treatment for MF in at least two weeks, ii) were administered an initial loading dose of SAP at 10 mg/kg by intravenous infusion (˜1 hour infusion) on days 1, 3, and 5, and iii) thereafter were administered a dose of SAP every week at 10 mg/kg by intravenous infusion (˜1 hour infusion). Cohort 3: i) patients on a stable dose (e.g., on ruxolitinib for at least 3 months without any dose modifications) of ruxolitinib for at least 12 weeks with no improvement in spleen during the last four weeks, ii) were administered an initial loading dose of SAP at 10 mg/kg by intravenous infusion (˜1 hour infusion) on days 1, 3, and 5 iii) thereafter were administered a dose of SAP every week at 10 mg/kg by intravenous infusion (˜1 hour infusion), and iv) were administered RUX orally at the dose at which they entered the study. Cohort 4: i) patients on a stable dose (e.g., on ruxolitinib for at least 3 months without any dose modifications) of ruxolitinib for at least 12 weeks with no improvement in spleen during the last four weeks, ii) were administered an initial loading dose of SAP at 10 mg/kg by intravenous infusion (˜1 hour infusion) on days 1, 3, and 5 iii) thereafter were administered a dose of SAP every four weeks at 10 mg/kg by intravenous infusion (˜1 hour infusion), and iv) were administered RUX orally at the dose at which they entered the study.
(§3) Patients in each cohort were monitored for improvements in BMF and other MF-related complications including, for example, abnormal blood cell parameters, splenomegaly, and symptoms as assessed by the MPN-SAF. In particular, patients were monitored for overall response rate according to the International Working Group consensus criteria for treatment response in myelofibrosis with myeloid metaplasia (Tefferi A, Cervantes F, Mesa R, et al. Revised response criteria for myelofibrosis: International Working Group-Myeloproliferative Neoplasms Research and Treatment (IWG-MRT) and European LeukemiaNet (ELN) consensus report. Blood. 2013; 122:1395-1398). Patients were also monitored for incidence of adverse events, changes in bone marrow fibrosis according to the European Consensus of Grading Bone Marrow Fibrosis (Thiele J, Kvasnicka H M, Facchetti F, et al. European consensus on grading bone marrow fibrosis and assessment of cellularity. Haematologica 2005; 90:1128-1132.), changes in the modified Myeloproliferative Neoplasma Symptom Assessment Form (MPN-SAF) Score (Emanuel et al. 2012, Journal of Clinical Oncology 30(33): 4098-4103), as well as pharmacokinetic parameters including, for example, maximum drug concentration (Cmax), time to maximum concentration (Tmax), area under the curve (AUC), clearance, and volume of distribution.
The numbers indicated in each column below the grade indicate the number of patients in which the adverse event was reported.

[2] = system: myelofibrosis (MF) patients; assay: Bone marrow fibrosis grade (European Consensus) and bone marrow response, same study; settings: for number of patients with decrease in bone marrow fibrosis by ≥1 grade: all treatment arms, at 12 or 24 weeks or both; for bone marrow fibrosis grade change: after 12 weeks
Description: as §1, §2, §3
Bone marrow biopsies were obtained at baseline and after three months of therapy and were reviewed. […] As detailed below, these improvements in BMF have borne out upon further analysis of the data across further treatment periods.
Clinical response assessment, including assessment of spleen size, MPN-SAF, and CBC, was carried out every 4 weeks. […]

[3] = system: myelofibrosis (MF) patients; assay: MPN-SAF Total Symptom Score and IWG-MRT symptom response, same study; settings: for number of patients with measurable symptom response (TSS reduction): alone; for MPN-SAF TSS response: patient 101-005 (Cohort 1), 24-30 weeks of monotherapy
Description: as §1, §2, §3
(§4) Clinical response assessment, including assessment of spleen size, MPN-SAF, and CBC, was carried out every 4 weeks. BM biopsies were carried out at baseline, 12 weeks, and 24 weeks. The IWG-MRT symptom and bone marrow responses observed at 24 weeks of this study are summarized below in Table 3. […]

[4] = system: myelofibrosis (MF) patients; assay: Spleen size / spleen response, same study; settings: for number of patients with measurable decrease in spleen size: alone; for spleen size response: patient 101-005 (Cohort 1), 24-30 weeks of monotherapy
Description: as §1, §2, §3, §4

[5] = system: myelofibrosis (MF) patients; assay: Hemoglobin, platelets (CBC) and red blood cell transfusions, same study; settings: for hemoglobin response / platelet response: patient 101-005 (Cohort 1), 24-30 weeks of monotherapy
Description: as §1, §2, §3, §4

[6] = Cohort 1: 10 mg/kg IV Q4W alone, 24 weeks
[7] = Cohort 2: 10 mg/kg IV QW alone, 24 weeks
[8] = a number of patients in all 4 treatment arms

## PRM-151: recombinant human SAP (serum amyloid P, pentraxin-2), α2,3-sialic acid-containing, expressed in CHO cells
[1]; [6]
  Abdominal pain Gr 3, number of patients: 1
  Fatigue Gr 2, number of patients: 2
  Neuropathy Peripheral Gr 2, number of patients: 1
[1]; [7]
  Abdominal pain Gr 3, number of patients: 1
  Alanine aminotransferase increased Gr 2, number of patients: 1
[1]; listed as SAP
  safety and tolerability: good tolerability
[1]; listed as rhSAP
  safety and tolerability: safe and well tolerated
  treatment-related myelosuppression: no evidence of clinically significant myelosuppression
[1]
  treatment-related myelosuppression: no apparent treatment-related myelosuppression
[2]; Cohort 1: Q4W alone, 24 weeks
  bone marrow responses, number: 2 bone marrow responses
[2]; Cohort 1: Q4W alone, 24 weeks, listed as recombinant human SAP
  bone marrow responses, number: 2
[2]; Cohort 2: QW alone, 24 weeks
  bone marrow responses, number: 1 bone marrow response
[2]
  number of patients with decrease in bone marrow fibrosis by ≥1 grade: 5
[2]; listed as recombinant human SAP
  number of patients with decrease in bone marrow fibrosis by ≥1 grade: five
[2]; in 10 additional patients evaluated at 36 weeks, alone or in combination
  bone marrow responses, number: 3
[2]; of 27 subjects examined, biopsies at baseline and after three months, all cohorts
  number of subjects with improvement in BMF: 5
[2]; one Cohort 1 patient (every four weeks, alone)
  bone marrow fibrosis grade change: Grade 2 to Grade 0
[2]; one Cohort 2 patient (weekly, alone)
  bone marrow fibrosis grade change: Grade 3 to Grade 2
[2]; patient 101-005 (Cohort 1), 12 weeks / three months
  bone marrow fibrosis grade change (reticulin staining): Grade 2 to Grade 0
[2]; patient 108-003 (Cohort 4), six months
  bone marrow fibrosis grade change (reticulin staining): Grade 2 to Grade 1
[2]; patient 108-003 (Cohort 4), three months
  bone marrow fibrosis grade change (reticulin staining): Grade 3 to Grade 2
[2]; patients responsive at the 12- or 24-week mark, following 36 weeks of treatment
  durability of response: continued to respond
[3]; Cohort 1: Q4W alone, 24 weeks
  symptom response ≥8 weeks, number: 1 symptom response ≥8 weeks
[3]; Cohort 1: every 4 weeks
  number of patients with measurable symptom response (TSS reduction): 4
[3]; Cohort 2: QW alone, 24 weeks
  confirmed symptom responses (≥12 weeks), number: 2 confirmed symptom responses (≥12 weeks)
  symptom response ≥8 weeks, number: 1 symptom response ≥8 weeks
[3]; Cohort 2: weekly
  number of patients with measurable symptom response (TSS reduction): 1
[3]; less than 50% on Cycle 6 Day 29
  additional subjects with 50% decrease in symptom score lasting ≥8 weeks: Two
[3]; of 18 evaluated patients followed to C6D29 or beyond, all four arms
  number of patients with reduction in MPN-SAF TSS compared to baseline: 10
[3]; on Cycle 6 Day 29, all arms
  number of patients with ≥50% reduction in Total Symptom Score: 5
[3]
  MPN-SAF TSS response: decrease
[3]; listed as rhSAP
  MPN-SAF TSS response: reduction
[4]; Cohort 1: every 4 weeks
  number of patients with measurable decrease in spleen size: 3
[4]; Cohort 2: QW alone, 24 weeks
  spleen response ≥8 weeks, number: 1 spleen response ≥8 weeks
[4]; Cohort 2: weekly
  number of patients with measurable decrease in spleen size: 2
[4]; all treatment arms, 24 weeks
  number of patients with ≥20% reduction in spleen volume: five
[4]; of 13 evaluated patients with palpable spleen followed to C6D29 or beyond, all four arms
  number of patients with reduction in spleen size compared to baseline: 10
[4]; one patient, Cohort 2 (weekly, alone), lasting 8 weeks
  reduction in spleen volume: 50%
[4]
  spleen size response: decrease
[4]; listed as rhSAP
  spleen size response: reduction
[5]; [8]
  hemoglobin levels: Improvement
  platelet levels: Improvement
  red blood cell transfusions: decrease
[5]
  hemoglobin response: increase
  platelet response: increase
[5]; listed as rhSAP
  hemoglobin response: improvement
  platelet response: improvement

— patent US11020451B2, “Methods for treating fibrotic cancers” (Promedior, Inc., priority 2013, dated 2021)
